Experimental data as given in patent US10966959B2, “Use of a rotifer-derived compound and its analogs for preventing schistosomiasis” (Wisconsin Alumni Research Foundation, priority 2018, dated 2021).
“Also recorded” adds a separate entry of the source.

Experiments:
S. mansoni cercariae [1] = test: Cercarial paralysis assay; type: cell-based
Procedure: Infected B. glabrata snails provided by Biomedical Research Institute (BRI, Rockville, Md.) were maintained in artificial pond water and fed Layer Crumbles (chicken feed) (Rural King, Mattoon, Ill.). To obtain S. mansoni cercariae, B. glabrata snails were exposed to light at 26° C. for 1-2 hrs. Artificial pond water containing cercariae was passed through 100 μm cell strainer (Falcon, Corning Inc., Corning, N.Y.) to remove snail food and feces. Cercariae were then collected using custom-made 20 μm cell strainers.
Cercarial Paralysis Assay
To capture the whole field while avoiding excess reflected light in a well, we used the lid of 96-well plate (Costar, Corning Inc., Corning, N.Y.). 40 μL of artificial pond water containing ˜50 cercariae were added to each shallow well on the lid. 10 μL of SPF (dissolved in APW) was then added to reach the final concentration indicated. Using a high-speed camera (Olympus i-SPEED TR), attached to a stereomicroscope (Leica MZ125, Leica Microsystems, Wetzlar, Germany), we recorded cercariae movement at 20-60 fps at 1.25× magnification just prior to addition of test compounds until 3-4 minutes after treatment started. Raw movies were converted to .avi files using i-SPEED Viewer and compressed into JPEG format using ImageJ (addition of compound is considered time 0). We then counted the numbers of free swimming/paralyzed cercariae every 5 seconds for 1 minute and every 30 seconds thereafter for 3 minutes. The number of dead cercariae (those that never swim before and after SPF treatment) were subtracted from data. Experiments were performed in triplicate.
To determine if cercariae react to SPF or other analogs in a dose-dependent manner, serial dilutions of SPF were made in APW. To quantify the paralysis effect of SPF, the movement of the cercariae was recorded, as well as the number of free-swimming and non-swimming cercariae. In the absence of SPF, over 82% of cercariae were free-swimming over three minutes (FIG. 1(A)). In the presence of 2.5 nM SPF, the percentage of free-swimming cercariae dropped to 67% at three minutes post drug treatment. As the concentration of SPF increased, the rate of paralysis increased, and more cercariae were paralyzed at the end of the treatment.

S. mansoni cercariae [2] = test: Mouse infection experiment (mouse tail exposure to drug-treated cercariae); type: in vivo; details: for liver granulomas / schistosome eggs in histological liver sections / adult worms recovered from infected mice: six weeks post infection
Procedure: Mouse Infection Experiment
Mouse infections were performed by exposing mouse tails to S. mansoni cercariae according to standard protocol from BRI with slight modifications (see Lewis et al., Curr. Protoc. Immunol., 2001, Chapter 19). Briefly, we secured mice in rodent restrainers (Thomas Scientific, Cat #551-BSRR) and put them vertically on top of a rack with grids. We pipetted 100 μL of each drug in proper concentration into a skinny glass tube (Fisher Scientific, Cat #14-958A) inside a 12×75 mm holding glass tube (VWR, Cat #47729-570). 300 μL of APW containing ˜200 cercariae were pipetted into each skinny tube and incubated for 10 mins before we inserted mouse tail. Mouse tails were wiped with APW-moistened Kimwipes, inserted into the skinny tube, and exposed to cercariae for 30 mins. We sacrificed and perfused these mice six week-post infection. For each drug, we initially used three mice for controls (APW only) and three mice for each concentration tested except for 25 nM Ht-13-A and Ht-13-A-pr. We then repeated the experiments again with three mice for each condition. In addition, we included six mice for 25 nM Ht-13-A and Ht-13-A-pr so that we had six biological replicates total for each condition.
Adult worms were recovered by hepatic portal vein perfusion and briefly incubated in 2.5% Tricaine (Sigma) to separate males and females. We counted total numbers of adult worms under a stereomicroscope (Leica MZ75, Leica Microsystems). Livers from infected mice were fixed in 4% formaldehyde in PBS overnight. Largest liver lobes (left lobe) were submitted to University of Wisconsin-Madison Histology Core Facility for sectioning and Hematoxylin and Eosin staining. Each left lobe was evenly cut into 4-6 pieces and paraffin embedded on a large cassette. One slide (4-6 liver sections) for each liver was used for histological examination, which provided a representative view throughout the whole liver lobe. We took a tiled image of the whole slide using a Zeiss Axio Zoom microscope and used ImageJ (National Institutes of Health, Bethesda, Md.) to determine the area of each section. Total numbers of eggs in each section were counted and normalized to the area.
To determine if SPF-induced paralysis could prevent infection, ˜200 cercariae were treated with different concentrations of SPF (25 nM, 250 nM, and 2.5 μM) for 10 min followed by a 30 min mouse tail infection (N=6 for each condition). Six-weeks post infection, the mice were euthanized, hepatic portal vein perfusion was performed, recovered schistosomes were counted, and mouse liver pathology was examined. In the control group, 83 adult worms were recovered on average (FIG. 2(A)). Livers from these mice appeared dark in color and had extensive granuloma formation (FIG. 2(A)). […] Without wishing to be bound by theory, it is possible that mechanical and/or chemical stimuli from mouse tails may overcome the SPF-induced paralytic effects at low SPF concentrations.

## COc1ccc2[nH]cc3c2c1OC1C(C)CN(C)C1C3 (centres unmarked) [SPF, 5-methoxy-7,9-dimethyl-6a,7,8,9,9a,10-hexahydro-2H-pyrrolo[2′,3′:6,7]oxepino[4,3,2-cd]indole]
S. mansoni cercariae [1]; 2.5 nM, three minutes post drug treatment
  percentage of free-swimming cercariae: 67%
S. mansoni cercariae [1]; 25 nM, in vitro
  paralytic effect on cercariae: could paralyze most cercariae
S. mansoni cercariae [1]; 250 nM
  paralytic effect on cercariae: maximum paralytic effect; also recorded: full paralysis
  time until majority of cercariae paralyzed: ≤ 30 s
S. mansoni cercariae [1]; 2.5 μM
  paralytic effect on cercariae: maximum paralytic effect; also recorded: full paralysis
  time until majority of cercariae paralyzed: ≤ 30 s
S. mansoni cercariae [2]; 25 nM
  effect on mouse infection: not as severe
S. mansoni cercariae [2]; 250 nM
  blocking / inhibition of infection: complete inhibition of infection
  liver granulomas: no granulomas were observed
  schistosome eggs in histological liver sections: clear of schistosome eggs
S. mansoni cercariae [2]; 2.5 μM
  blocking / inhibition of infection: complete inhibition of infection
  liver granulomas: no granulomas were observed
  schistosome eggs in histological liver sections: clear of schistosome eggs
S. mansoni cercariae [2]; cercariae treated with 250 nM for 10 min
  adult worms recovered from infected mice: no adult worms could be recovered
S. mansoni cercariae [2]; cercariae treated with 2.5 μM for 10 min
  adult worms recovered from infected mice: no adult worms could be recovered
S. mansoni cercariae [2]; higher concentrations of drug treatment
  liver appearance (post perfusion): normal morphologies with few or no granulomas
S. mansoni cercariae [2]; lower concentrations of drug
  liver appearance (post perfusion): darker in color and contained more granulomas
